Eight compounds from patent US11040056B2, “Benzimidazoles that enhance the activity of oligonucleotides” (The University of North Carolina at Chapel Hill, priority 2018, dated 2021) can be followed below.

d = 2'-deoxy (DNA); m = 2'-O-methyl

For one data set, the system named is HeLaLuc705 cells. Description: SSO-mediated luciferase induction assay. Format: cell-based. The settings on record: for EC50: luciferase induction by SSO623. The protocol: FIG. 1B-1E. Effects with SSOs. FIG. 1B Structure of UNC2383. […] The cells were then rinsed and incubation continued for an additional 4 h in DMEM+10% FBS. Cells were rinsed twice in PBS and luciferase activity (RLU) and cell protein determined. The larger round symbol indicates the MM oligonucleotide. Means+/−SE. N=3. […] The cells were further incubated and then luciferase and protein determined. The total time of incubation in each case was 6 h. […] Means+/−SE. N=3.
(§1) FIG. 3. Effect and Cytotoxicity of Analogs. The effect of selected UNC2383 analogs on luciferase induction by SSO623 was measured as described in Methods and in the legend of FIG. 1B-1E. Cytotoxicity was measured using the Alamar Blue method as in FIG. 1E. MM10 is the effect of 10 uM compound in the presence of a mismatched oligonucleotide. Means and SE. N=3.
HeLaLuc705 cells are stably transfected with a firefly luciferase reporter whose coding sequence is interrupted by an abnormal intron. […] NIH-3T3-MDR cells are stably transfected with a human MDR1 cDNA coding for the P-glycoprotein (Pgp). We have described the maintenance and use of these cell lines elsewhere. (18, 20)
SSO-mediated luciferase induction assays were conducted as previously described. (18) In short, HeLaLuc705 cells in 24 well culture plates were preincubated with SSO623 followed by brief treatment with the small molecule; at intervals thereafter, luciferase activity and protein content were determined. […] (30)

For data set [1], the system named is CFTR channel activity in human bronchial epithelial cells (HBEC) from a 3849+10 kbC-T homozygous patient. Description: Ussing chamber analysis of CFTR function in 3849+10 kbC-T HBEC. The format is cell-based. The settings on record: SSO A 1 uM overnight, OEC 4 uM 2 hs luminal or serosal, 72 h, approved drugs in parallel. The text has this: FIG. 11. CFTR activity restored to CF splicing mutation 3849+10 kbC-T using SSOs. SSOs were delivered in vitro by electroporation (˜100% efficiency), CF primary cells were differentiated on permeable supports and tested. Panel A. PCR analysis. The lower band is the correctly spliced CFTR. Panel B. Functional correction by Ussing chamber analysis.
FIG. 12. OEC Mediated Delivery of a SSO in 3849+10 kbC-T HBEC. Well-differentiated human bronchial epithelial cells (HBEC) derived from a 3849+10 kbC-T homozygous patient were incubated with corrective (LNA) SSO A from FIG. 1 (1 uM, overnight). Cells were then incubated with OEC UNC2383 in the luminal or serosal bath (4 uM, 2 hs). Both the SSO and OEC were added in cell growing medium. Seventy two hour later, HBEC were analyzed in Ussing chamber for CFTR function. Orkambi® was tested in parallel inserts.
Results: In vitro studies were performed in well-differentiated HBEC cells derived from a homozygous 3849+10 kbC→T CF patient (CF HBEC) treated with one dose of a specific SSO (1 uM, 12 hs) followed by one dose of OEC (apical or basolateral delivery, 2-4 uM, 2-3 hs). A significant increase of forskolin-stimulated CFTR activity in Ussing chamber analyses was observed 24-96 hs after SSO+OEC treatment compared to SSO alone treatment or vehicle. OEC was efficacious delivered apically as well as basolaterally. Transepithelial resistance and microscopy tests were implemented to monitor cytotoxicity, which was negligible for both SSO and OEC (FIG. 12). In vivo studies were performed in a transgenic mouse model that has a SSO-inducible EGFP reporter.
SSOs (100 nM) were introduced in airway epithelial cells derived from a 3849+10 kbC-T homozygous CF patient in suspension by electroporation using the Neon system, program A4. Cells were differentiated for 2 weeks in culture on human collagen-coated permeable supports (Millipore) before being tested in Ussing chambers following methods described in Kreda et al. […] “Characterization of Wild-Type and ΔF508 Cystic Fibrosis Transmembrane Regulator in Human Respiratory Epithelia” Mol. Biol. Cell 16(5):2154-2167 (100 uM Amiloride, Amil; 10 uM Forskolin, Fsk; 20 uM CFTR inhibitor 172). After Ussing chamber analysis, cells were lysed and assayed for RT-PCR as described in Wang et al 2017 (FIG. 11).
(SEQ ID NO:2), C (5′+G*mA*mG*mU*+C*mU*mU**mU*mA*+C*mU*mC*mA*mC*mC*+A*mU*mU*mU) (SEQ ID NO:3) (Locked Nucleic Acid (LNA)=+, PS=*, 2′OMe=m). In SSO sequences A, B, and C the underlined bases indicate oligo bases that match up to the bases in the mutated splice site in the 3849+10 kb C-T CFTR splicing mutation. MM623 or SSO623 sequences are described herein. […]

Data set [2] in a line: Alamar Blue cytotoxicity assay. The settings on record: human, HeLa Luc705 cells; Alamar Blue cytotoxicity; read-out: TC50. The format is cell-based. The protocol:
(§2) FIG. 1B-1E. Effects with SSOs. FIG. 1B Structure of UNC2383. FIG. 1C Compound 2383 enhances SSO effects. Cells were incubated in 24-well plates with 100 nM SSO623 or its mismatched control (MM) for 16 h in DMEM+10% FBS, rinsed and then treated with various concentrations of 2383 for 2 h. The cells were then rinsed and incubation continued for an additional 4 h in DMEM+10% FBS. Cells were rinsed twice in PBS and luciferase activity (RLU) and cell protein determined. The larger round symbol indicates the MM oligonucleotide. Means+/−SE. N=3. FIG. 1D Kinetics of 2383 action. Cells were preloaded with 100 nM SSO623 and then exposed to 2383 for various periods after which the compound was removed. The cells were further incubated and then luciferase and protein determined. The total time of incubation in each case was 6 h. FIG. 1E Cytotoxicity of 2383. HeLa Luc705 or NIH-3T3-MDR cells were exposed to 2383 as in (FIG. 1C) then incubated for 24 h in DMEM plus 10% FBS and tested using the Alamar Blue cytotoxicity assay. Means+/−SE. N=3.
as §1
(§3) SSO-mediated luciferase induction assays were conducted as previously described. (18) In short, HeLaLuc705 cells in 24 well culture plates were preincubated with SSO623 followed by brief treatment with the small molecule; at intervals thereafter, luciferase activity and protein content were determined. ASO mediated inhibition of MDR1 gene expression utilized an Alexa 488 labeled anti-P-glycoprotein antibody and flow cytometry to measure Pgp expression as described. (20) The anti-MDR1 sequence is 5′-CCATCccgacctcgcGCTCC-3′(SEQ ID NO: 5) (all phosphorothiopate with 2-O-Me residues in capitals). Cytotoxicity of 2383 was monitored using the Alamar Blue assay. (30)
(Alamar Blue is a resazurin reagent that responds to reducing activity.)

The next data set has as its system HeLa Luc705 cells. As to the kind of experiment: Alamar Blue cytotoxicity assay. The settings on record: ratio of cytotoxicity TC50 to luciferase induction EC50. Format: cell-based. The protocol:
as §2, §1, §3

The test system of data set [3] is P-glycoprotein (Pgp) expression in NIH-3T3-MDR cells. As to the kind of experiment: ASO mediated inhibition of MDR1 gene expression (Pgp by flow cytometry). Format: cell-based, mouse. The settings on record: 100 nM anti-MDR1 ASO 16 h; 10 μM UNC2383 2 h where used; 48 h. The protocol: FIG. 4. Effects with ASOs. Reduction of Pgp expression. NIH 3T3-MDR cells were incubated with 100 nM anti-MDR1 ASO or a mismatched (MM) control for 16 h in DMEM+1% FBS. Cells were rinsed and then treated with 10 μM UNC2383 for 2 h. The compound was removed, and the cells further incubated for 48 h. Expression of Pgp on the cell surface was determined by treating cells with Alexa 488 labeled anti-Pgp monoclonal antibody and binding quantitated by flow cytometry (PE(A)=units of fluorescence intensity). Treatment with ASO complexed with Lipofectamine 2000 (L2K) was a positive control. Y axis, cell counts; X axis, Alexa 488 fluorescence. […] Means±SE, N=3.
We also tested UNC2383 for its ability to affect ASOs rather than SSOs. The ASO was designed to inhibit expression of the MDR1 gene and its product the P-glycoprotein multidrug transporter. […] Cell surface expression of P-glycoprotein was monitored using an Alexa 488 labeled anti-Pgp monoclonal antibody and flow cytometry. […]
SSO-mediated luciferase induction assays were conducted as previously described. (18) In short, HeLaLuc705 cells in 24 well culture plates were preincubated with SSO623 followed by brief treatment with the small molecule; at intervals thereafter, luciferase activity and protein content were determined. […] Cytotoxicity of 2383 was monitored using the Alamar Blue assay. […]

The conditions of data set [4]: mouse, in vivo.
Experimental: All animal procedures were conducted in compliance with guidelines of the UNC Laboratory Animal Medicine Department and with federal guidelines. […] (20, 32) EGFP654 mice were administered 35 mg/kg of SSO623 or mismatched oligonucleotide in buffer by intraperitoneal injection on two consecutive days. One day later, mice received either 5 mg/kg of UNC2383 in a 1:1 DMSO/PEG400 solution or only the diluent, via intraperitoneal injection. […] After 24 h, the second cohort was euthanized and tissue and cardiac blood samples were obtained. […] (31) Blood samples were analyzed by the UNC Animal Clinical Chemistry Core facility.

For `CCN(CC)CCCC(C)Nc1ccnc2cc(Cl)ccc12` (stereo not drawn) [Chloroquine, chloroquine, reference compound], the “SSO-mediated luciferase induction, comparison with chloroquine” value in the data set with HeLaLuc705 cells (FIG. 9C, 2 h, chloroquine also 16 h) is given as “little effect”.
With `CC(C)(C)c1cc(C(C)(C)C)c(NC(=O)c2c[nH]c3ccccc3c2=O)cc1O` [Ivactafor®/Kalydeco®, reference compound], the “CFTR channel activity / functional correction” value in data set [1] is on record as “minimal effect”; in data set [1] (listed as Kalydeco®), “no effect”.
Turning to `O=C(Nc1nc2ccccc2n1CCN1CCCC1)c1cc2cc(Br)ccc2o1` [UNC4251], in the data set with HeLaLuc705 cells, the EC50 came out at 2 µM. Further, the CC50 at 2 h in data set [2] amounted to 7 µM. In addition, the TC50/EC50 in the data set on HeLa Luc705 cells was 3.5.
For `COc1ccc2oc(C(=O)Nc3nc4ccccc4n3CCN3CCCC3)cc2c1` [UNC4253] the same measures were 11 µM, 48 µM and 4.4.
Compound `O=C(Nc1nc2cc(Cl)ccc2n1CCN1CCCC1)c1cc2cc(Cl)ccc2o1` [UNC4425] gave an EC50 in the data set with HeLaLuc705 cells of 6 µM. In addition, the CC50 at 2 h in data set [2] turned out to be 12.5 µM. Besides, the TC50/EC50 in the data set with HeLa Luc705 cells is 2.1.
For the compound `Cc1ccc2c(c1)nc(NC(=O)c1cc3cc(Cl)ccc3o1)n2CCN1CCCC1` [UNC4426], in the data set with HeLaLuc705 cells, the EC50 is 3.5 µM. For the same compound, in data set [2], the CC50 at 2 h is 13 µM. In addition, in the data set on HeLa Luc705 cells, the TC50/EC50 is recorded as 3.7.
For the compound “ASO: anti-MDR1 antisense oligonucleotide 5′-CCATCccgacctcgcGCTCC-3′ (SEQ ID NO: 5) (antisense CCATCCCGACCTCGCGCTCC; sugars from the 5' end m5 d10 m5, all phosphorothioate, methylation of C and T or U not given here) [reference compound]”, the “Pgp expression on the cell surface” value in data set [3] is reported as “virtually no effect”.
Consider “SSO623: 2′-O Me phosphorothioate splice switching oligonucleotide 5′-GTTATTCTTTAGAATGGTGC-3′ (SEQ ID NO: 4) (all 2'-O-methyl, all phosphorothioate, T or U not given here)”, for which, in data set [4], the ALT is given as 51 +/− 8 U/L, the AST is 65 +/− 23 U/L, the BUN worked out at 23 ± 2 mg/dL and the Hb was determined as 13.8 ± 0.8 g/dL. Moreover, the Platelets in data set [4] is recorded as 824 +/− 266 × 10^3/ul.

By EC50 is commonly meant the concentration at which the effect is half-maximal. High values mean a need for much substance, low ones an effect from little substance.
